For the assay, the system named is MV-4-11 cells. Nature of the assay: Gene expression microarray analysis (Affymetrix PrimeView) and GSEA. The format is cell-based, human. Details: RFU PODN (11730768_x_at) / Fold change /veh PODN (11730768_x_at) / RFU LINC00158 (11744669_a_at) / Fold change /veh LINC00158 (11744669_a_at) / RFU DUSP10 (11751237_a_at) / Fold change /veh DUSP10 (11751237_a_at) / RFU ID3 (11757404_x_at) / Fold change /veh ID3 (11757404_x_at) / RFU PLEKHG5 (11737974_s_at) / Fold change /veh PLEKHG5 (11737974_s_at) / RFU LRRC4B (11730491_at) / Fold change /veh LRRC4B (11730491_at) / RFU GIMAP4 (11747438_a_at) / Fold change /veh GIMAP4 (11747438_a_at) / RFU KRT8 (11758183_x_at) / Fold change /veh KRT8 (11758183_x_at) / RFU CNN1 (11734310_a_at) / Fold change /veh CNN1 (11734310_a_at) / RFU VPS37D (11726825_at) / Fold change /veh VPS37D (11726825_at) / RFU C10orf10 (11716522_x_at) / Fold change /veh C10orf10 (11716522_x_at) / RFU KIR2DL2 /// KIR2DL4 /// KIR2DL5A /// KIR2DL5B /// KIR2DS1 /// KIR2DS2 /// KIR2DS3 /// KIR2DS4 /// KIR3DL3 /// KIR3DL3 /// KIR3DS1 (11738374_at) / Fold change /veh KIR2DL2 /// KIR2DL4 /// KIR2DL5A /// KIR2DL5B /// KIR2DS1 /// KIR2DS2 /// KIR2DS3 /// KIR2DS4 /// KIR3DL3 /// KIR3DL3 /// KIR3DS1 (11738374_at) / RFU C1QL1 (11718748_at) / Fold change /veh C1QL1 (11718748_at) / RFU TMPRSS4 (11747572_a_at) / Fold change /veh TMPRSS4 (11747572_a_at) / RFU HAMP (11756126_x_at) / Fold change /veh HAMP (11756126_x_at) / RFU RNFT2 (11725882_a_at) / Fold change /veh RNFT2 (11725882_a_at) / RFU NR4A2 (11747474_a_at) / Fold change /veh NR4A2 (11747474_a_at) / RFU ABCC12 (11746883_a_at) / Fold change /veh ABCC12 (11746883_a_at) / RFU TMEM136 (11760407_x_at) / Fold change /veh TMEM136 (11760407_x_at) / RFU CLDN22 /// WWC2 (11732394_at) / Fold change /veh CLDN22 /// WWC2 (11732394_at) / RFU HLA-DPB1 (11760878_x_at) / Fold change /veh HLA-DPB1 (11760878_x_at) / RFU SPINT1 (11716480_a_at) / Fold change /veh SPINT1 (11716480_a_at) / RFU GAP43 (11754022_s_at) / Fold change /veh GAP43 (11754022_s_at) / RFU A4GNT (11735810_at) / Fold change /veh A4GNT (11735810_at) / RFU PRB3 (11715151_x_at) / Fold change /veh PRB3 (11715151_x_at) / RFU TUBB4B (11761932_at) / Fold change /veh TUBB4B (11761932_at) / RFU CAPN14 (11732068_a_at) / Fold change /veh CAPN14 (11732068_a_at) / RFU TMCC2 (11721928_a_at) / Fold change /veh TMCC2 (11721928_a_at) / RFU IRGQ (11745062_a_at) / Fold change /veh IRGQ (11745062_a_at) / RFU FAM174B (11720279_a_at) / Fold change /veh FAM174B (11720279_a_at) / RFU TMPRSS4 (11748680_a_at) / Fold change /veh TMPRSS4 (11748680_a_at) / RFU FAM212B (11763350_a_at) / Fold change /veh FAM212B (11763350_a_at) / RFU PLEKHG5 (11743358_a_at) / Fold change /veh PLEKHG5 (11743358_a_at) / RFU ZSCAN30 (11745921_a_at) / Fold change /veh ZSCAN30 (11745921_a_at) / RFU CMKLR1 (11741424_a_at) / Fold change /veh CMKLR1 (11741424_a_at) / RFU LOC101060620 /// MAPK8IP1 (11723275_at) / Fold change /veh LOC101060620 /// MAPK8IP1 (11723275_at) / RFU SPTSSB (11747773_x_at) / Fold change /veh SPTSSB (11747773_x_at) / RFU PRSS12 (11739890_at) / Fold change /veh PRSS12 (11739890_at) / RFU BIN1 (11741810_x_at) / Fold change /veh BIN1 (11741810_x_at) / RFU WNT11 (11732464_a_at) / Fold change /veh WNT11 (11732464_a_at) / RFU C10orf10 (11716521_a_at) / Fold change /veh C10orf10 (11716521_a_at) / RFU C5orf56 (11738089_at) / Fold change /veh C5orf56 (11738089_at) / RFU CYB561 (11721691_x_at) / Fold change /veh CYB561 (11721691_x_at) / RFU ANKRD19P (11752326_a_at) / Fold change /veh ANKRD19P (11752326_a_at) / RFU OR2T12 /// OR2T33 /// OR2T8 (11738714_s_at) / Fold change /veh OR2T12 /// OR2T33 /// OR2T8 (11738714_s_at) / RFU VCAN (11748164_a_at) / Fold change /veh VCAN (11748164_a_at) / RFU JSRP1 (11732532_at) / Fold change /veh JSRP1 (11732532_at) / RFU KRTAP10-11 (11738290_x_at) / Fold change /veh KRTAP10-11 (11738290_x_at) / RFU MYO3A (11730013_a_at) / Fold change /veh MYO3A (11730013_a_at) / RFU EBF3 (11725865_a_at) / Fold change /veh EBF3 (11725865_a_at) / RFU CAMK2N1 (11719241_x_at) / Fold change /veh CAMK2N1 (11719241_x_at) / RFU C5orf56 (11738088_a_at) / Fold change /veh C5orf56 (11738088_a_at) / RFU OLFML3 (11715873_a_at) / Fold change /veh OLFML3 (11715873_a_at) / RFU LOC100653217 /// NTM (11731650_a_at) / Fold change /veh LOC100653217 /// NTM (11731650_a_at) / RFU MAPK11 (11762145_a_at) / Fold change /veh MAPK11 (11762145_a_at) / RFU FIZ1 (11724087_x_at) / Fold change /veh FIZ1 (11724087_x_at) / RFU OASL (11726364_x_at) / Fold change /veh OASL (11726364_x_at) / RFU SOX15 (11748057_x_at) / Fold change /veh SOX15 (11748057_x_at) / RFU CD79A (11719716_a_at) / Fold change /veh CD79A (11719716_a_at) / RFU HIST1H1D (11736915_at) / Fold change /veh HIST1H1D (11736915_at) / RFU CASKIN2 (11723855_a_at) / Fold change /veh CASKIN2 (11723855_a_at) / RFU LOC730098 (11760151_x_at) / Fold change /veh LOC730098 (11760151_x_at) / RFU OR4N2 (11742367_at) / Fold change /veh OR4N2 (11742367_at) / RFU PRRT2 (11749266_a_at) / Fold change /veh PRRT2 (11749266_a_at) / RFU SNX32 (11753110_a_at) / Fold change /veh SNX32 (11753110_a_at) / RFU CDHR5 (11726645_a_at) / Fold change /veh CDHR5 (11726645_a_at) / RFU RCAN1 (11760418_a_at) / Fold change /veh RCAN1 (11760418_a_at) / RFU FAM167A (11723789_a_at) / Fold change /veh FAM167A (11723789_a_at) / RFU FAM26E (11764081_at) / Fold change /veh FAM26E (11764081_at) / RFU ISYNA1 (11749810_s_at) / Fold change /veh ISYNA1 (11749810_s_at) / RFU ACY1 (11761880_at) / Fold change /veh ACY1 (11761880_at) / RFU 11764098_at / Fold change /veh 11764098_at / RFU SAMD14 (11745864_x_at) / Fold change /veh SAMD14 (11745864_x_at) / RFU NPB (11741838_a_at) / Fold change /veh NPB (11741838_a_at) / RFU TMPRSS6 (11731388_a_at) / Fold change /veh TMPRSS6 (11731388_a_at) / RFU KRTAP10-2 (11738614_at) / Fold change /veh KRTAP10-2 (11738614_at) / RFU ARHGAP8 /// PRR5-ARHGAP8 (11727945_x_at) / Fold change /veh ARHGAP8 /// PRR5-ARHGAP8 (11727945_x_at) / RFU KRTAP5-7 /// NADSYN1 (11734609_at) / Fold change /veh KRTAP5-7 /// NADSYN1 (11734609_at) / RFU RASL12 (11751679_a_at) / Fold change /veh RASL12 (11751679_a_at) / RFU CDKN2B (11736163_a_at) / Fold change /veh CDKN2B (11736163_a_at) / RFU PRF1 (11729649_at) / Fold change /veh PRF1 (11729649_at) / RFU, ZNF638 /// ZNF638-IT1 / Fold change vs veh, ZNF638 /// ZNF638-IT1 / RFU, PANK3 / Fold change vs veh, PANK3 / RFU, SH3YL1 / Fold change vs veh, SH3YL1 / RFU, ZEB2 / Fold change vs veh, ZEB2 / RFU, NRIP1 / Fold change vs veh, NRIP1 / RFU, PTTG1IP / Fold change vs veh, PTTG1IP / RFU, CAPN2 / Fold change vs veh, CAPN2 / RFU, MED14 / Fold change vs veh, MED14 / RFU, SNORA58 / Fold change vs veh, SNORA58 / RFU, C1orf63 / Fold change vs veh, C1orf63 / RFU, LRRFIP1 / Fold change vs veh, LRRFIP1 / RFU, NDUFAF7 / Fold change vs veh, NDUFAF7 / RFU, SLC12A2 / Fold change vs veh, SLC12A2 / RFU, IBTK / Fold change vs veh, IBTK / RFU, ESF1 / Fold change vs veh, ESF1 / Fold change vs veh, TMEM50B / RFU, TAOK1 / Fold change vs veh, TAOK1 / RFU, ACBD3 / Fold change vs veh, ACBD3 / RFU, TMA16 / Fold change vs veh, TMA16 / RFU, RWDD3 / Fold change vs veh, RWDD3 / RFU, BCAT1 / Fold change vs veh, BCAT1 / RFU, EDEM3 / Fold change vs veh, EDEM3 / RFU, TMEM33 / Fold change vs veh, TMEM33 / RFU, WDR75 / Fold change vs veh, WDR75 / RFU, AHCTF1 / Fold change vs veh, AHCTF1 / RFU, TFRC / Fold change vs veh, TFRC / RFU, ZDHHC17 / Fold change vs veh, ZDHHC17 / RFU, NOM1 / Fold change vs veh, NOM1 / RFU, ARL8B / Fold change vs veh, ARL8B / RFU, ZBTB11 / Fold change vs veh, ZBTB11 / RFU, TAMM41 / Fold change vs veh, TAMM41 / RFU, KIAA1704 /// LOC100996395 / Fold change vs veh, KIAA1704 /// LOC100996395 / RFU, ING1 / Fold change vs veh, ING1 / RFU, TRMT61B / Fold change vs veh, TRMT61B / RFU, FUBP3 / Fold change vs veh, FUBP3 / RFU, TP53 / Fold change vs veh, TP53 / RFU, TNKS2 / Fold change vs veh, TNKS2 / RFU, ZFP14 / Fold change vs veh, ZFP14 / RFU, ACTR2 / Fold change vs veh, ACTR2 / RFU, PPP3R1 / Fold change vs veh, PPP3R1 / RFU, PIK3R1 / Fold change vs veh, PIK3R1 / RFU, HNRNPA1 / Fold change vs veh, HNRNPA1 / RFU, RNF170 / Fold change vs veh, RNF170 / RFU, ZNF28 / Fold change vs veh, ZNF28 / RFU, RNGTT / Fold change vs veh, RNGTT / RFU, OGT / Fold change vs veh, OGT / RFU, BRD1 / Fold change vs veh, BRD1 / RFU, MARS / Fold change vs veh, MARS / RFU, ZNF655 / Fold change vs veh, ZNF655 / RFU, FAHD1 / Fold change vs veh, FAHD1 / RFU, BDP1 / Fold change vs veh, BDP1 / RFU, LRRCC1 / Fold change vs veh, LRRCC1 / RFU, ARID1A / Fold change vs veh, ARID1A / RFU, ZNF146 / Fold change vs veh, ZNF146 / RFU, ZNF330 / Fold change vs veh, ZNF330 / RFU, GPN3 / Fold change vs veh, GPN3 / RFU, C9orf123 / Fold change vs veh, C9orf123 / RFU, N4BP2L2 / Fold change vs veh, N4BP2L2 / RFU, ARFIP1 / Fold change vs veh, ARFIP1 / RFU, FAM179B / Fold change vs veh, FAM179B / RFU, BCL10 / Fold change vs veh, BCL10 / RFU, UHRF1BP1L / Fold change vs veh, UHRF1BP1L / RFU, BET1 / Fold change vs veh, BET1 / RFU, CNOT2 / Fold change vs veh, CNOT2 / RFU, ZNF268 / Fold change vs veh, ZNF268 / Fold change vs veh, ZNF507 / RFU, DGCR2 / Fold change vs veh, DGCR2 / RFU, WDSUB1 / Fold change vs veh, WDSUB1 / Fold change vs veh, HSP90B1 /// MIR3652 / RFU, ADSS / Fold change vs veh, ADSS / RFU, GK / Fold change vs veh, GK / RFU, ZNF148 / Fold change vs veh, ZNF148 / RFU, TAF9 / Fold change vs veh, TAF9 / RFU, SLC1A5 / Fold change vs veh, SLC1A5 / RFU, SLMO2 / Fold change vs veh, SLMO2 / RFU, ABCC4 / Fold change vs veh, ABCC4 / RFU, LOC101060439 /// RAP1B / Fold change vs veh, LOC101060439 /// RAP1B / RFU, RFX7 / Fold change vs veh, RFX7 / RFU, GTPBP10 / Fold change vs veh, GTPBP10 / RFU, CNEP1R1 / Fold change vs veh, CNEP1R1 / RFU, BIVM-ERCC5 /// ERCC5 / Fold change vs veh, BIVM-ERCC5 /// ERCC5 / RFU, ILF3 / Fold change vs veh, ILF3 / RFU 11762660_at / Fold change /veh 11762660_at / RFU VCAN (11757783_s_at) / Fold change /veh VCAN (11757783_s_at) / RFU DDX43 (11728927_at) / Fold change /veh DDX43 (11728927_at) / RFU KRT8 (11758188_x_at) / Fold change /veh KRT8 (11758188_x_at) / RFU NKD1 (11759106_at) / Fold change /veh NKD1 (11759106_at) / RFU SRD5A1 (11742802_a_at) / Fold change /veh SRD5A1 (11742802_a_at) / RFU TPSAB1 /// TPSB2 (11721975_s_at) / Fold change /veh TPSAB1 /// TPSB2 (11721975_s_at) / RFU GSTM3 (11746129_a_at) / Fold change /veh GSTM3 (11746129_a_at) / RFU IL23R (11737362_x_at) / Fold change /veh IL23R (11737362_x_at) / RFU TMEM51 (11727254_a_at) / Fold change /veh TMEM51 (11727254_a_at) / RFU PIWIL2 (11732686_x_at) / Fold change /veh PIWIL2 (11732686_x_at) / RFU ORM1 (11744905_x_at) / Fold change /veh ORM1 (11744905_x_at) / RFU CCDC152 (11743942_at) / Fold change /veh CCDC152 (11743942_at) / RFU ECM1 (11717891_a_at) / Fold change /veh ECM1 (11717891_a_at) / RFU IL23R (11748794_a_at) / Fold change /veh IL23R (11748794_a_at) / RFU TNFAIP8L3 (11732012_x_at) / Fold change /veh TNFAIP8L3 (11732012_x_at) / RFU MBOAT4 (11741988_at) / Fold change /veh MBOAT4 (11741988_at) / RFU 11764193_at / Fold change /veh 11764193_at / RFU TMEM53 (11763286_at) / Fold change /veh TMEM53 (11763286_at) / RFU MAGEB2 (11727129_at) / Fold change /veh MAGEB2 (11727129_at) / RFU TMEM200A (11744735_a_at) / Fold change /veh TMEM200A (11744735_a_at) / RFU CCDC152 (11751479_a_at) / Fold change /veh CCDC152 (11751479_a_at) / RFU FAM211A (11726209_a_at) / Fold change /veh FAM211A (11726209_a_at) / RFU RGS16 (11746705_a_at) / Fold change /veh RGS16 (11746705_a_at) / RFU VCAN (11755009_s_at) / Fold change /veh VCAN (11755009_s_at) / RFU RHOB (11743442_s_at) / Fold change /veh RHOB (11743442_s_at) / RFU RGS16 (11720943_a_at) / Fold change /veh RGS16 (11720943_a_at) / RFU RGS16 (11720944_at) / Fold change /veh RGS16 (11720944_at) / RFU, VPS4B / Fold change vs veh, VPS4B / RFU, CREB1 / Fold change vs veh, CREB1 / RFU, DNAJC13 / Fold change vs veh, DNAJC13 / RFU, GNAQ / Fold change vs veh, GNAQ / RFU, CDK5R1 / Fold change vs veh, CDK5R1 / RFU, ZRANB3 / Fold change vs veh, ZRANB3 / RFU, CUL4A / Fold change vs veh, CUL4A / RFU, CCNY / Fold change vs veh, CCNY / RFU, UFL1 / Fold change vs veh, UFL1 / RFU, COG3 / Fold change vs veh, COG3 / RFU, DIAPH2 / Fold change vs veh, DIAPH2 / RFU, SKA2 / Fold change vs veh, SKA2 / RFU, AFF3 / Fold change vs veh, AFF3 / RFU, LMF1 / Fold change vs veh, LMF1 / RFU, IPO11 / Fold change vs veh, IPO11 / RFU, DFFB / Fold change vs veh, DFFB / RFU, FOXP1 / Fold change vs veh, FOXP1 / RFU, CARD8 / Fold change vs veh, CARD8 / RFU, STRN3 / Fold change vs veh, STRN3 / RFU, ADK / Fold change vs veh, ADK / RFU, RASSF2 / Fold change vs veh, RASSF2 / RFU, WIPF1 / Fold change vs veh, WIPF1 / RFU, LARP1B / Fold change vs veh, LARP1B / RFU, RASA1 / Fold change vs veh, RASA1 / RFU, RB1 / Fold change vs veh, RB1 / RFU, PPFIA1 / Fold change vs veh, PPFIA1 / RFU, MAT2A / Fold change vs veh, MAT2A / RFU, CCT5 / Fold change vs veh, CCT5 / RFU, WDR92 / Fold change vs veh, WDR92 / RFU, CUX1 / Fold change vs veh, CUX1 / RFU, TTC7A / Fold change vs veh, TTC7A / RFU, TMEM135 / Fold change vs veh, TMEM135 / RFU, DEPTOR / Fold change vs veh, DEPTOR / RFU, CPM / Fold change vs veh, CPM / RFU, DNAJB6 / Fold change vs veh, DNAJB6 / RFU, CACNA2D3 / Fold change vs veh, CACNA2D3 / RFU, DTX4 / Fold change vs veh, DTX4 / RFU, TFCP2 / Fold change vs veh, TFCP2 / RFU, GMCL1 /// GMCL1P1 / Fold change vs veh, GMCL1 /// GMCL1P1 / RFU, AEBP2 / Fold change vs veh, AEBP2 / RFU, SNHG1 /// SNORD22 /// SNORD25 /// SNORD26 /// SNORD27 /// SNORD28 /// SNORD29 /// SNORD31 / Fold change vs veh, SNHG1 /// SNORD22 /// SNORD25 /// SNORD26 /// SNORD27 /// SNORD28 /// SNORD29 /// SNORD31 / Fold change (Aza/veh), C12orf56 (ProbeSet 11735607_a_at) / Fold change (ACY-1035/veh), C12orf56 (ProbeSet 11735607_a_at) / Fold change (Aza/veh), FGFR1OP (ProbeSet 11751329_s_at) / Fold change (ACY-1035/veh), FGFR1OP (ProbeSet 11751329_s_at) / Fold change (Aza/veh), VPS36 (ProbeSet 11739960_a_at) / Fold change (ACY-1035/veh), VPS36 (ProbeSet 11739960_a_at) / RFU SYPL1 (11715823_x_at) / Fold change /veh SYPL1 (11715823_x_at) / RFU IGFBP7 (11715501_s_at) / Fold change /veh IGFBP7 (11715501_s_at) / RFU REEP3 (11722064_at) / Fold change /veh REEP3 (11722064_at) / RFU IGLL1 (11728026_x_at) / Fold change /veh IGLL1 (11728026_x_at): dose or concentration left out as unconfirmed. The following applies: ProbeSet 11718569_a_at; LIST D.

On to `Nc1ncn([C@@H]2O[C@H](CO)[C@@H](O)[C@H]2O)c(=O)n1` [azacitidine], for which the “RFU, WIPF1” value is 81.62 RFU.

Values taken from article PMC5218480 (PLoS ONE, 2017).
